Columns and labels:
[1] = test system: Tobacco (cv. Petite Havana) T0 plants; assay: Saflufenacil foliar spray of transgenic T0 tobacco plants, visual injury; type: in vivo; details: 12.5 g/ha spray; for mean visual injury score: tobacco T0 plants carrying the susceptible allele
Description: Tobacco (cv. Petite Havana) was transformed by particle bombardment with plant expression vectors using a strong constitutive promoter to control the GM ABCT1 SUS (susceptible allele, SEQ ID NO: 125) or GM ABCT1 RES (resistant allele, SEQ ID NO: 124) genes using the following protocol: • 1) Weigh 1 mg 0.6 micron gold powder (for 8 shots). Add 1 ml 100% ethanol Sonicate 2 min. Centrifuge at 13,000 rpm×5 sec. Remove Supernatant. Repeat 3 times. • 2) Add 1 ml sterile double-deionized water. Sonicate 2 min. Centrifuge at 13,000 rpm×5 sec. Remove Supernatant. Repeat 2 times. • 3) Add 321 μl sterile water. Vortex and sonicate 2 min. • 4) Add 4 μl of DNA (1 μg/μl concentration) and vortex briefly. • 5) Add 100 μl of 5M CaCl2 and 80 μl of 0.1M Spermidine (14 μl of Spermidine+985.6 μl water prepared freshly). Mix with finger and vortex 2 sec. • 6) Incubate on ice for 1 min. Spin down at 13,000 rpm for 2 sec and remove supernatant. • 7) Add 500 μl of 100% ethanol. Pipette up and down a few times to wash. (It is important to break all big aggregates at this stage). Vortex 2 sec. Spin down at 13,000 rpm for 2 sec and remove supernatant. • 8) Re-suspend in 85 μl of 100% ethanol. Keep on ice. Vortex solution before spreading 10 μl of DNA prep on flying disk. (Sterilize in 100% ethanol for 5-10 min and air dry, also sterilize and air dry 1100 psi rupture disk). • 9) Place tobacco leaf (cv. Petit Havana) abaxial side up in the center of a petri plate containing MS01 medium (MS+B5 vitamins (Phytotechnology M519), Sucrose 30 g/l, agar 8 g/l, BA 2 mg/L, NAA 0.05 mg/L). • 10) Bombard with 28 mm Hg vacuum, position plate at 9 cm (2nd position from bottom), 1100 psi rupture disk. After bombardment, invert leaves so bombarded side and petioles are in contact with medium. • 11) Maintain leaves under 16 hrs/day dim light (<5 μEinstein) for 2-3 days. • 12) Cut leaves into small pieces (0.5 cm×0.5 cm) in MSB-Co (MS+Vit, Glucose 10 g/L, BA 50 mg/L, pH5.2), then blot dry on sterile filter paper and place with bombarded side in contact with the MS01 medium containing hygromycin 25 mg/L under 16 hrs/day light (80-120 μEinstein). When shoots appear, cut and place directly in selection media. • 13) Until shoots appear, change selection medium every 2 weeks. • 14) When entire plantlets are formed (1-2 cm high), leaves are cut into approx. 1-2 mm segments and re-cultured on MS01 medium containing hygromycin 25 mg/L and 8 g/L agar. Subculture to fresh medium every 3 weeks. When new shoots appear, isolate single shoots and transfer onto ½ MS media (M519 2.22 g/L, sucrose 15 g/L, agar 6 g/L).
Stable transgenic events were tested for presence of the transgene by PCR, and transcription of the genes was confirmed by qRT-PCR. Three clonal plants were produced from each transgenic event; two plants from each event were used for the spray experiment.
Plants were grown until 3 to 5 expanded true leaves were present and then sprayed with saflufenacil at a rate of 12.5 g/ha. All treatments were applied in a spray volume of 140 L/ha. Ammonium sulfate was included at 1% w/v. Treated plants were compared to untreated plants of similar genetic background and evaluated for herbicide injury at seven and seventeen days after treatment. Visual injury was on a scale of 0 to 100% injury (0=no effect to 100=dead plant).

[2] = test system: tobacco T1 seeds and wild type seeds; assay: Germination of tobacco T1 seeds on Gelrite plates containing saflufenacil; type: in vivo
Description: Unsprayed clones of the transgenic tobacco plants described above were grown in a greenhouse until flowering and were allowed to self pollinate. Seeds were harvested and used for further experiments. Transgene insertion copy number was not determined for these plants, but for single copy plants the seeds would be expected to segregate 1homozygous:2hemizygous:1null for the transgene.
T1 seeds from multiple transgenic events carrying the resistant and susceptible alleles, and wild type seeds, were germinated on 1.5% Gelrite (no nutrients or minerals) plates and kept in a growth chamber at 26° C. under a 16 hr light regime. Plate media contained saflufenacil at concentrations down to 0.45 parts per billion (ppb). […] All seed germinated and grew normally on Gelrite plates lacking saflufenacil.

[3] = test system: Soybean (cv. Jack) T0 plants; assay: Saflufenacil foliar spray of transgenic T0 soybean plants, visual injury; type: in vivo, Glycine max; details: 3 g/ha foliar spray, 7 days after treatment, 0=no effect, 100=dead plant
Description: Soybean was transformed essentially as described in Li et al. (2007) Plant Mol Biol 65:329-341. Soybean (cv. Jack) embryogenic cultures were transformed by particle bombardment with plant expression vectors using a strong constitutive promoter to control the GM ABCT1 SUS (susceptible allele, SEQ ID NO:125) or GM ABCT1 TOL (resistant allele, SEQ ID NO: 124) genes. Stable transgenic events were tested for presence of the transgene by PCR, but no confirmation of expression was performed. Three clonal plants were produced from each transgenic event.
These T0 plants were grown to the V2 to V8 growth stage and then sprayed with saflufenacil at a rate of 3 g/ha. All treatments were applied in a spray volume of 280 L/ha. The spray mixture contained acetone, water, glycerin and surfactant. Treated plants were compared to untreated plants of similar genetic background and evaluated for herbicide injury at seven days after treatment. Visual injury was on a scale of 0 to 100% injury (0=no effect to 100=dead plant). Plants are also visually evaluated for agronomic effects such as interveinal and veinal chlorosis, reddening, leaf malformation, necrosis, apical withering/death/regrowth, and whole plant height.

[4] = test system: tobacco T1 seedlings and wild type; assay: Saflufenacil soil drench of tobacco T1 seedlings in pots; type: in vivo; details: three days after treatment
Source text: T1 seeds were sown in four inch pots containing soil and allowed to germinate for five days. At this point, with cotyledons visible above the soil, pots were drenched with 100 mls saflufenacil in water at 0.45 ppb. The solution was applied to soil, avoiding direct contact with plant cotyledons.

CC(C)N(C)S(=O)(=O)NC(=O)c1cc(-n2c(=O)cc(C(F)(F)F)n(C)c2=O)c(F)cc1Cl [saflufenacil]
mean visual injury ([1]; tobacco T0 plants carrying the resistant allele, seven days after treatment): 63%
mean visual injury ([1]; tobacco T0 plants carrying the resistant allele, seventeen days after treatment): 46%
mean visual injury score ([1]; seven days after treatment): 77%
mean visual injury score ([1]; seventeen days after treatment): 61%
mean visual injury ([1]; transgenic control tobacco plants carrying an unrelated transgene, seven days after treatment): 63%
mean visual injury ([1]; transgenic control tobacco plants carrying an unrelated transgene, seventeen days after treatment): 53%
difference between transgenic seed with either GM ABCT1 allele and wild type seed ([2]; Gelrite plates containing saflufenacil down to 0.45 ppb): No visible difference
seed germination and growth ([2]; plate media at 0.91 ppb and 0.45 ppb, transgenic T1 and wild type tobacco seed): seeds germinated but were bleached and failed to grow
seed germination ([2]; plate media at concentrations above 0.91 ppb, transgenic T1 and wild type tobacco seed): no germination was observed
mean visual injury ([3]; soybean cv. Jack T0 plants carrying the resistant allele (GM ABCT1 TOL)): 72%
mean visual injury score ([3]; soybean cv. Jack T0 plants carrying the susceptible allele (GM ABCT1 SUS)): 59%
mean visual injury ([3]; wild type soy plants): 84%
seedling condition ([4]; 100 mls at 0.45 ppb drenched to soil five days after sowing): all seedlings were severely bleached and appeared dead
differences between transgenic lines and wild type ([4]; 100 mls at 0.45 ppb soil drench): No visible differences

Source: patent US9611485B2, “Polynucleotide and polypeptide sequences associated with herbicide tolerance” (priority 2010, dated 2017)
